Data set [1] concerns the target T1, Nuclear receptor subfamily 1 group I member 3 (Rattus norvegicus, UniProt Q9QUS1).
T1 sequence (Q9QUS1 whole entry): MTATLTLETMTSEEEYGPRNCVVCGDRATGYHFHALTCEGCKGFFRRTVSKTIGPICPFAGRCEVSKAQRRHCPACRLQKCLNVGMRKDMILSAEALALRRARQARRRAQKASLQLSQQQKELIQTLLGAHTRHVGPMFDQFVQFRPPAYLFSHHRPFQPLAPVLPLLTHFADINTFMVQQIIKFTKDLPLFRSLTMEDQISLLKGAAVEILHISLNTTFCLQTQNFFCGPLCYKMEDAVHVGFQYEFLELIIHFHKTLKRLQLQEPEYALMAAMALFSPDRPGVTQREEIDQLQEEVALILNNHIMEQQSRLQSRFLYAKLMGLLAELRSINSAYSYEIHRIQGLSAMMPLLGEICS
Put plainly: Activation of rat CAR expressed in rat hepatocytes coexpressing CYP2B1 at 1 uM after 24 hrs by dual luciferase reporter gene assay. The data set is classed as ADME, cell-based, Hepatocyte.

Data set [2] has as its target T2, Nuclear receptor subfamily 1 group I member 3 (Homo sapiens, UniProt Q14994).
T2 sequence (Q14994 whole entry): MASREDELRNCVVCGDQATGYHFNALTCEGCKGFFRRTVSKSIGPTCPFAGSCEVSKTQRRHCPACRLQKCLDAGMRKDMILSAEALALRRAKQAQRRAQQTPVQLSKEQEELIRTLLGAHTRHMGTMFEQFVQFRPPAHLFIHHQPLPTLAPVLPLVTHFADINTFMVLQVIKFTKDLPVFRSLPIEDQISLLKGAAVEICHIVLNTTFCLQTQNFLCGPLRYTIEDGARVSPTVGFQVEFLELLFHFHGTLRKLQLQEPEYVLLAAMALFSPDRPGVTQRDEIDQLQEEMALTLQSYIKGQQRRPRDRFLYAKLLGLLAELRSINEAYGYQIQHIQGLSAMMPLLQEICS
Put plainly: Activation of human CAR expressed in human HepG2 cells coexpressing CYP2B6 at 10 uM after 24 hrs by dual luciferase reporter gene assay. Type of data set: ADME, cell-based. The following applies: hepg2, 24 h. For orientation: In a reporter assay the amount or activity of a reporter protein is the signal.

In data set [3] the target is T2, Nuclear receptor subfamily 1 group I member 3. The data set can be described thus: Activation of human CAR expressed in human HepG2 cells coexpressing CYP2B6 at 0.25 uM after 24 hrs by dual luciferase reporter gene assay. The data set is classed as ADME, cell-based. The conditions noted are these: hepg2, 24 h.
The target is the same in data set [4]. The data set can be described thus: Activation of human CAR expressed in rat hepatocytes coexpressing CYP2B1 at 1 uM after 24 hrs by dual luciferase reporter gene assay. Type of data set: ADME, cell-based, Hepatocyte.
Data set [5] concerns the target T3, Nuclear receptor subfamily 1 group I member 2 (Rattus norvegicus, UniProt Q9R1A7).
T3 sequence (Q9R1A7 whole entry): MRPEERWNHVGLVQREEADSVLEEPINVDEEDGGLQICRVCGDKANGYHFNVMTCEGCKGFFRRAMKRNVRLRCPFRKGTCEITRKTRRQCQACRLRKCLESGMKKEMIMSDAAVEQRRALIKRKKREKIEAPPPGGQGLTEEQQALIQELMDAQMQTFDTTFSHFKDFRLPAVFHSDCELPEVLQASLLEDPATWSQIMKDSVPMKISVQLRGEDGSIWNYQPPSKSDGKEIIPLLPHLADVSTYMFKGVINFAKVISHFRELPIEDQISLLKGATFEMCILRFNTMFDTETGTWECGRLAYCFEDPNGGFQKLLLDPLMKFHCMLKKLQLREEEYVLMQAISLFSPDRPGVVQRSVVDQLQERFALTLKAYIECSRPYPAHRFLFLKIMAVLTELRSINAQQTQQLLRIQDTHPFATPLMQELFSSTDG
The data set can be described thus: Antagonist activity at rat PXR expressed in human HepG2 cells coexpressing CYP3A4 assessed as inhibition of PCN-induced receptor activation at 30 uM after 24 hrs by dual luciferase reporter gene assay. The data set is classed as ADME, cell-based. The following applies: hepg2, 24 h.

The target of data set [6] is T4, Nuclear receptor subfamily 1 group I member 2 (Homo sapiens, UniProt O75469).
T4 sequence (O75469 whole entry): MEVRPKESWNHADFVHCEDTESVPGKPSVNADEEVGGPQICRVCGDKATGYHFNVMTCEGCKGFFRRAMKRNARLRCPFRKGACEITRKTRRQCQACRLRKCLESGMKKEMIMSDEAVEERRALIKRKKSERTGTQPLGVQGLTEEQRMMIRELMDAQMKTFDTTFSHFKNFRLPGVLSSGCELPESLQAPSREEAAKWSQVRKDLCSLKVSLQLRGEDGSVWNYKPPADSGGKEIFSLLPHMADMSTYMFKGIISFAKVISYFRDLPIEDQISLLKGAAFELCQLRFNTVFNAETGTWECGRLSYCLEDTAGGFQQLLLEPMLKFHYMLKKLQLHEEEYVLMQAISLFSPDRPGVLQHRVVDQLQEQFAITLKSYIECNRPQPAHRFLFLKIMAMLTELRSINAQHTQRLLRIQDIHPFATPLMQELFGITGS
Put plainly: Antagonist activity at human PXR expressed in human HepG2 cells coexpressing CYP3A4 assessed as inhibition of rifampicin-induced receptor activation at 30 uM after 24 hrs by dual luciferase reporter gene assay. The following applies: hepg2, 24 h. Type of data set: ADME, cell-based.

In data set [7] the target is T5, CYP2B activity (CAR activation) (Rattus norvegicus, UniProt Q9QUS1).
T5 sequence (Q9QUS1 whole entry): T1 sequence (Q9QUS1 whole entry)
The data set can be described thus: Activation of CAR in rat hepatocytes assessed as increase in CYP2B-mediated benzyloxyresorufin O-dealkylation at 100 uM after 24 hrs by spectrofluorometric analysis relative to control. Type of data set: ADME, cell-based, Hepatocyte. The conditions noted are these: probe benzyloxyresorufin (O-dealkylation), read-out: FC.

The target in data set [8] is T6, CYP2B1 mRNA (CAR activation) (Rattus norvegicus, UniProt Q9QUS1).
T6 sequence (Q9QUS1 whole entry): T1 sequence (Q9QUS1 whole entry)
The data set can be described thus: Activation of CAR in rat hepatocytes assessed as upregulation of CYP2B1 mRNA expression at 100 uM after 24 hrs by RT-PCR analysis relative to control. The following applies: read-out: FC. Type of data set: ADME, cell-based, Hepatocyte.

The next data set has as its target T7, CAR (CYP2B1 reporter) (Rattus norvegicus, UniProt Q9QUS1).
T7 sequence (Q9QUS1 whole entry): T1 sequence (Q9QUS1 whole entry)
Put plainly: Activation of rat CAR expressed in rat hepatocytes coexpressing CYP2B1 at 100 uM after 24 hrs by dual luciferase reporter gene assay relative to control. The data set is classed as ADME, cell-based, Hepatocyte. The conditions noted are these: rat hepatocytes expressing rat CAR and coexpressing CYP2B1, read-out: FC.

Data set [9] concerns the target T4, Nuclear receptor subfamily 1 group I member 2. Put plainly: Activation of human PXR expressed in rat hepatocytes coexpressing CYP3A4 at 10 uM after 24 hrs by dual luciferase reporter gene assay relative to control.
The target in data set [10] is T8, PXR (CYP3A4 reporter) (Rattus norvegicus, UniProt Q9R1A7).
T8 sequence (Q9R1A7 whole entry): T3 sequence (Q9R1A7 whole entry)
Put plainly: Activation of rat PXR expressed in rat hepatocytes coexpressing CYP3A4 at 10 uM after 24 hrs by dual luciferase reporter gene assay relative to control. The conditions noted are these: rat hepatocytes expressing rat PXR and coexpressing CYP3A4.

The target in data set [11] is T4, Nuclear receptor subfamily 1 group I member 2. The data set can be described thus: Activation of human PXR expressed in human HepG2 cells coexpressing CYP3A4 at 10 uM after 24 hrs by dual luciferase reporter gene assay relative to control. The conditions noted are these: hepg2, 24 h.
For data set [12], the target named is T8, PXR (CYP3A4 reporter). The data set can be described thus: Activation of rat PXR expressed in human HepG2 cells coexpressing CYP3A4 at 0.1 to 10 uM after 24 hrs by dual luciferase reporter gene assay relative to control. The following applies: human HepG2 cells expressing rat PXR and coexpressing CYP3A4.

With `Clc1ccc(-c2nc3sccn3c2/C=N/OCc2ccc(Cl)c(Cl)c2)cc1`, the Activity result is given as “Not Active” in [1] and “Active” in [2].
Turning to `Clc1cnc(Oc2ccc(Oc3ncc(Cl)cc3Cl)cc2)c(Cl)c1`, the Activity entry in data set [3] and in [4] was “Not Active” in each case.
Turning to `CC(=O)N1CCN(c2ccc(OCC3COC(Cn4ccnc4)(c4ccc(Cl)cc4Cl)O3)cc2)CC1` (stereo not drawn) [KETOCONAZOLE], the “inhibition (INH)” value in [5] and in data set [6] was “Active” each time.
As to `CCC1(c2ccccc2)C(=O)NC(=O)NC1=O` [PHENOBARBITAL SODIUM], the fold induction at 24 h, 100 µM in data set [7] was determined as 12; in data set [8], 48; at CAR (CYP2B1 reporter) it was 9.
For `CC(=O)[C@H]1[C@H](C#N)C[C@H]2[C@@H]3CC=C4C[C@@H](O)CC[C@]4(C)[C@H]3CC[C@@]21C` [PREGNENOLONE CARBONITRILE], the Activity entry in data set [9] and in data set [11] was “Not Active” in each case. The fold induction at 24 h, 10 µM stood at 9 on PXR (CYP3A4 reporter) [10] and 19 at PXR (CYP3A4 reporter) [12].

(Values after ChEMBL document CHEMBL3526076, “Species-dependent and receptor-selective action of bilobalide on the function of constitutive androstane receptor and pregnane X receptor” (Drug Metab Dispos, 2012).)
